The supplement of paper PMC6045584
± gives the standard deviation of the averaged measurements.

Tests used:
[1] = compound: CCn1c(C(=O)N(C2CC2)C2CC2)cc2c3c(ncn3C)c(Nc3cc(C)n(C)n3)nc21; assay: surviving fraction relative to DMSO-only wells; higher = less growth inhibition; details: exposure time: 5 days
In short: (§1)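 Surviving fraction was calculated by normalising CellTiter-Glo luminescence to the median of DMSO-only wells. Tumour cell lines in log phase were seeded in 384-well plates at 250–500 cells per well, and 24 hours later were exposed continuously for five days to inhibitors at 0.5, 1, 5, 10, 50, 100, 500 and 1000 nM.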

ABIRATERONE = compound: C[C@]12CC[C@H](O)CC1=CC[C@@H]1[C@@H]2CC[C@]2(C)C(c3cccnc3)=CC[C@@H]12 [ABIRATERONE]; assay: as above; details: exposure time: 5 days
In short: as §1

Test System | surviving fraction ([1]; 0.5 nM) | surviving fraction ([1]; 1 nM) | surviving fraction ([1]; 5 nM) | surviving fraction ([1]; 10 nM) | surviving fraction ([1]; 50 nM) | surviving fraction ([1]; 100 nM) | surviving fraction ([1]; 500 nM) | surviving fraction ([1]; 1000 nM) | surviving fraction (ABIRATERONE; 0.5 nM) | surviving fraction (ABIRATERONE; 1 nM) | surviving fraction (ABIRATERONE; 5 nM) | surviving fraction (ABIRATERONE; 10 nM) | surviving fraction (ABIRATERONE; 50 nM) | surviving fraction (ABIRATERONE; 100 nM) | surviving fraction (ABIRATERONE; 500 nM) | surviving fraction (ABIRATERONE; 1000 nM)
SCC36 HEADNECK | 0.87 ± 0.045 | 1.07 ± 0.1 | 1.12 ± 0.077 | 1.11 ± 0.044 | 1.12 ± 0.073 | 1.04 ± 0.032 | 1.07 ± 0.093 | 0.962 ± 0.057 | 1.04 ± 0.094 | 1.09 ± 0.022 | 1.24 ± 0.08 | 1.14 ± 0.072 | 1.15 ± 0.046 | 1.1 ± 0.15 | 1.02 ± 0.061 | 1.02 ± 0.034
SUM159 BREAST | 1.04 ± 0.063 | 0.972 ± 0.041 | 0.997 ± 0.012 | 0.873 ± 0.2 | 0.95 ± 0.12 | 0.965 ± 0.12 | 0.955 ± 0.13 | 0.959 ± 0.1 | 1.11 ± 0.053 | 0.994 ± 0.16 | 0.99 ± 0.17 | 0.952 ± 0.21 | 1.11 ± 0.05 | 0.963 ± 0.24 | 1.03 ± 0.15 | 0.961 ± 0.2
HCC202 BREAST | 1.32 ± 0.046 | 1.04 ± 0.17 | 1.16 ± 0.22 | 1.38 ± 0.23 | 1.4 ± 0.19 | 1.23 ± 0.057 | 1.35 ± 0.36 | 1.08 ± 0.062 | 1.062 ± 0.0076 | 1.28 ± 0.2 | 1.16 ± 0.15 | 1.32 ± 0.44 | 1.27 ± 0.073 | 1.23 ± 0.031 | 0.991 ± 0.13 | 0.86 ± 0.28
OSHN BONE | 1.03 ± 0.026 | 1.02 ± 0.016 | 1.03 ± 0.017 | 1.01 ± 0.025 | 1.05 ± 0.041 | 1.03 ± 0.04 | 1.03 ± 0.033 | 0.999 ± 0.023 | 1.13 ± 0.021 | 1.102 ± 0.009 | 1.12 ± 0.022 | 1.09 ± 0.029 | 1.13 ± 0.016 | 1.13 ± 0.031 | 1.11 ± 0.017 | 1.09 ± 0.024
CADOES1 SOFT TISSUE | 0.958 ± 0.066 | 0.961 ± 0.061 | 0.905 ± 0.13 | 0.92 ± 0.068 | 0.889 ± 0.16 | 0.94 ± 0.026 | 0.913 ± 0.033 | 0.988 ± 0.091 | 0.958 ± 0.12 | 1.03 ± 0.061 | 0.978 ± 0.11 | 0.943 ± 0.04 | 1 ± 0.025 | 1.11 ± 0.055 | 1.04 ± 0.14 | 0.955 ± 0.061
SCC47 HEADNECK | 0.86 ± 0.014 | 0.823 ± 0.037 | 0.995 ± 0.094 | 0.968 ± 0.1 | 0.99 ± 0.063 | 1.06 ± 0.072 | 0.88 ± 0.016 | 0.916 ± 0.12 | 1.18 ± 0.061 | 1.11 ± 0.027 | 1.17 ± 0.061 | 1.19 ± 0.1 | 1.22 ± 0.13 | 1.36 ± 0.098 | 1.25 ± 0.093 | 1.17 ± 0.077
BT20 BREAST | 1.07 ± 0.032 | 0.999 ± 0.25 | 1.09 ± 0.24 | 1 ± 0.2 | 1.1 ± 0.26 | 1.07 ± 0.16 | 1.16 ± 0.22 | 1.24 ± 0.18 | 1.17 ± 0.082 | 1.04 ± 0.23 | 1.22 ± 0.11 | 1.21 ± 0.2 | 1.12 ± 0.23 | 1.14 ± 0.15 | 1.13 ± 0.16 | 1 ± 0.14
SKBR3 BREAST | 0.949 ± 0.15 | 1.07 ± 0.11 | 0.955 ± 0.11 | 1.04 ± 0.12 | 1.08 ± 0.12 | 1.1 ± 0.049 | 1.04 ± 0.081 | 0.999 ± 0.14 | 0.995 ± 0.11 | 1.07 ± 0.073 | 1.2 ± 0.17 | 0.924 ± 0.1 | 1.11 ± 0.18 | 1.14 ± 0.068 | 1.08 ± 0.1 | 0.918 ± 0.18
SJSA1 BONE | 1.03 ± 0.041 | 1.01 ± 0.028 | 1.02 ± 0.028 | 1.01 ± 0.057 | 1.06 ± 0.021 | 1.07 ± 0.022 | 1.059 ± 0.007 | 1.05 ± 0.034 | 1.04 ± 0.051 | 1.09 ± 0.086 | 1.13 ± 0.032 | 1.1 ± 0.026 | 1.11 ± 0.037 | 1.15 ± 0.031 | 1.1 ± 0.015 | 1.04 ± 0.073
LNCAP PROSTATE | 0.985 ± 0.1 | 0.852 ± 0.067 | 0.908 ± 0.19 | 0.861 ± 0.12 | 0.969 ± 0.032 | 0.915 ± 0.013 | 0.802 ± 0.03 | 0.806 ± 0.067 | 0.875 ± 0.08 | 0.996 ± 0.24 | 0.92 ± 0.026 | 0.869 ± 0.11 | 0.93 ± 0.1 | 0.976 ± 0.15 | 0.84 ± 0.12 | 0.791 ± 0.14
DU4475 BREAST | 0.875 ± 0.26 | 0.938 ± 0.15 | 0.819 ± 0.24 | 0.887 ± 0.2 | 0.713 ± 0.23 | 0.675 ± 0.29 | 0.91 ± 0.46 | 1.05 ± 0.35 | 0.872 ± 0.039 | 1.02 ± 0.19 | 0.991 ± 0.14 | 0.983 ± 0.12 | 0.989 ± 0.15 | 0.917 ± 0.32 | 0.998 ± 0.23 | 0.938 ± 0.34
SAOS2 BONE | 1 ± 0.061 | 0.97 ± 0.011 | 1.06 ± 0.12 | 0.96 ± 0.031 | 1.12 ± 0.02 | 1.05 ± 0.069 | 1.05 ± 0.072 | 1.04 ± 0.091 | 1.1 ± 0.015 | 1.16 ± 0.11 | 1.23 ± 0.041 | 1.16 ± 0.018 | 1.183 ± 0.0029 | 1.24 ± 0.04 | 1.204 ± 0.012 | 1.1 ± 0.017
H23 LUNG | 0.966 ± 0.048 | 0.982 ± 0.013 | 0.972 ± 0.025 | 0.981 ± 0.03 | 0.99 ± 0.015 | 0.981 ± 0.025 | 0.894 ± 0.021 | 0.903 ± 0.054 | 1.07 ± 0.058 | 1.05 ± 0.062 | 1.06 ± 0.056 | 1.07 ± 0.049 | 1.1 ± 0.063 | 1.16 ± 0.032 | 1.17 ± 0.031 | 1.16 ± 0.072
SUM149 BREAST | 1.04 ± 0.093 | 1.05 ± 0.12 | 1.07 ± 0.059 | 1.06 ± 0.026 | 1.04 ± 0.05 | 1.04 ± 0.16 | 1.06 ± 0.037 | 1.1 ± 0.16 | 1.05 ± 0.046 | 1.006 ± 0.01 | 1.07 ± 0.014 | 1.04 ± 0.038 | 0.947 ± 0.085 | 0.872 ± 0.1 | 0.902 ± 0.069 | 0.892 ± 0.071
SUM44 BREAST | 0.98 ± 0.056 | 1 ± 0.0096 | 1.04 ± 0.026 | 0.997 ± 0.086 | 1.03 ± 0.08 | 1.12 ± 0.025 | 1.02 ± 0.068 | 1.01 ± 0.057 | 0.949 ± 0.017 | 0.962 ± 0.057 | 1.02 ± 0.037 | 0.991 ± 0.045 | 1.06 ± 0.034 | 1.12 ± 0.07 | 1.1 ± 0.047 | 1.03 ± 0.031
CAL72 BONE | 1.1 ± 0.015 | 1.11 ± 0.035 | 1.06 ± 0.019 | 1.035 ± 0.005 | 1.12 ± 0.022 | 1.16 ± 0.059 | 1.13 ± 0.028 | 1.1 ± 0.035 | 1.087 ± 0.0031 | 1.1 ± 0.023 | 1.09 ± 0.056 | 1.09 ± 0.043 | 1.16 ± 0.012 | 1.15 ± 0.019 | 1.13 ± 0.048 | 1.07 ± 0.027
